≈ marks a conversion by molar mass, not a printed value.
Legend:
Format in all cases: cell-based
ESCHERICHIA COLI DC-2 = test: In vitro antibacterial activity, MIC, BHI agar dilution; conditions: E. coli DC-2, unit assumed
[1] = test system: STREPTOCOCCUS PYOGENES PIU 2548; test: as above; conditions: S. pyogenes PIU 2548, unit assumed
CANDIDA ALBICANS CCH 442 = test: as above; conditions: C. albicans CCH 442, unit assumed
[2] = test system: STAPHYLOCOCCUS AUREUS CMX 642A; test: as above; conditions: S. aureus CMX 642A, unit assumed
ESCHERICHIA COLI KNK 437 = conditions: E. coli KNK 437; BHI agar; unit assumed
[3] = test system: STAPHYLOCOCCUS AUREUS A5177; test: In vitro antibacterial activity, MIC, BHI agar dilution; conditions: S. aureus A5177, unit assumed
[4] = test system: STAPHYLOCOCCUS EPIDERMIDIS 3519; conditions: S. epidermidis 3519; BHI agar; unit assumed
PSEUDOMONAS CEPACIA 296I = test: In vitro antibacterial activity, MIC, BHI agar dilution; conditions: P. cepacia 296I, unit assumed
[5] = test system: STREPTOCOCCUS PYOGENES EES61; test: as above
ESCHERICHIA COLI JUHL = conditions: E. coli JUHL; BHI agar; unit assumed
[6] = test system: PSEUDOMONAS AERUGINOSA BMH10; test: In vitro antibacterial activity, MIC, BHI agar dilution; conditions: P. aeruginosa BMH10, unit assumed
[7] = test system: STAPHYLOCOCCUS AUREUS A-5278; test: as above
[8] = test system: STREPTOCOCCUS BOVIS A-5169; test: as above
[9] = test system: PSEUDOMONAS AERUGINOSA K799/61; test: as above; conditions: P. aeruginosa K799/61, unit assumed
[10] = test system: PSEUDOMONAS AERUGINOSA 5007; test: as above; conditions: P. aeruginosa 5007, unit assumed
[11] = test system: PSEUDOMONAS AERUGINOSA DPHD-5263; test: as above; conditions: P. aeruginosa DPHD-5263, unit assumed
[12] = test system: PSEUDOMONAS AERUGINOSA DPHD-2862; test: as above; conditions: P. aeruginosa DPHD-2862, unit assumed
ESCHERICHIA COLI SS = test: as above; conditions: E. coli SS
[13] = test system: STREPTOCOCCUS PYOGENES 930; test: as above; conditions: S. pyogenes 930, unit assumed
ESCHERICHIA COLI H560 = test: as above; conditions: E. coli H560, unit assumed
[14] = test system: PSEUDOMONAS AERUGINOSA K799/WT; test: as above; conditions: P. aeruginosa K799/WT, unit assumed
[15] = test system: PROVIDENCIA STUARTII CMX 640; conditions: P. stuartii CMX 640; BHI agar; unit assumed
[16] = test system: KLEBSIELLA PNEUMONIAE ATCC 8045; test: In vitro antibacterial activity, MIC, BHI agar dilution; conditions: K. pneumoniae ATCC 8045, unit assumed
[17] = test system: ACINETOBACTER CALCOACETICUS CMX 669; test: as above; conditions: A. calcoaceticus CMX 669, unit assumed
[18] = test system: MYCOBACTERIUM SMEGMATIS ATCC 114; test: as above; conditions: M. smegmatis ATCC 114, unit assumed
[19] = test system: STAPHYLOCOCCUS AUREUS 1775; test: as above; conditions: S. aureus 1775, unit assumed
M[…] ATCC 9341 = test: as above; conditions: M. luteus ATCC 9341, unit assumed
In short: (§1)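 BHI agar dilution, 12 plates; inoculum 1:100 (1:10 slow-growing strains), Steers replicator; 35-37° C, 20-24 h. MIC = lowest conc. with no growth/slight haze/sparse colonies vs growth control, visual read. Erythromycin A reference plate.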

STR[…] 508 = test: as above; conditions: S. agalactiae CMX 508, unit assumed
In short: as §1

EN[…] ATCC 8043 = test: as above; conditions: E. faecium ATCC 8043, unit assumed
In short: as §1

M[…] ATCC 4698 = test: as above
In short: as §1

[20] = test system: ENTEROBACTER AEROGENES ATCC 13048; test: as above; conditions: E. aerogenes ATCC 13048, unit assumed
[21] = test system: STAPHYLOCOCCUS AUREUS CMX 553; test: as above; conditions: S. aureus CMX 553, unit assumed
[22] = test system: STAPHYLOCOCCUS AUREUS ATCC 6538P; test: as above; conditions: S. aureus ATCC 6538P, 35-37° C., 20 to 24 hours, unit assumed
[23] = test system: STAPHYLOCOCCUS AUREUS NCTC10649M; test: as above; conditions: S. aureus NCTC10649M, unit assumed
[24] = S. pyogenes EES61, unit assumed
[25] = M. luteus ATCC 4698, unit assumed

Structure (SMILES)	MIC (ESCHERICHIA COLI DC-2)	MIC [1]	MIC (CANDIDA ALBICANS CCH 442)	MIC [2]	MIC (ESCHERICHIA COLI KNK 437)	MIC [3]	MIC [4]	MIC (PSEUDOMONAS CEPACIA 296I)	MIC (ESCHERICHIA COLI JUHL)	MIC [6]	MIC [10]	MIC [11]	MIC [12]	MIC [13]	MIC (ESCHERICHIA COLI H560)	MIC [14]	MIC [15]	MIC [16]	MIC [17]	MIC [18]	other results
CC[C@H]1OC(=O)[C@H](C)C(=O)[C@H](C)[C@@H](O[C@@H]2O[C@H](C)C[C@H](N(C)C)[C@H]2O)[C@](C)(OC)C[C@@H](C)C2=N[C@@H]3CN(C(=O)OCc4ccccc4)C[C@@H]3N3C(=O)O[C@@]1(C)[C@H]3[C@H]2C [Example 20]	> 100 µg/mL	0.78 µg/mL (≈ 0.959 µM)	> 100 µg/mL	1.56 µg/mL (≈ 1.92 µM)	> 100 µg/mL	0.78 µg/mL (≈ 0.959 µM)	0.78 µg/mL (≈ 0.959 µM)	> 100 µg/mL	> 100 µg/mL	> 100 µg/mL	> 100 µg/mL	> 100 µg/mL	> 100 µg/mL	> 100 µg/mL	100 µg/mL (≈ 123 µM)	> 100 µg/mL	> 100 µg/mL	> 100 µg/mL	100 µg/mL (≈ 123 µM)	3.1 µg/mL (≈ 3.81 µM)	MIC [5, 24]: 5 ng/mL (≈ 0.00615 µM); MIC ([7]; S. aureus A-5278, unit assumed): > 100 µg/mL; MIC ([8]; S. bovis A-5169, unit assumed): 0.1 µg/mL (≈ 0.123 µM); MIC [9]: 6.2 µg/mL (≈ 7.63 µM); MIC (ESCHERICHIA COLI SS; unit assumed): 3.1 µg/mL (≈ 3.81 µM); MIC [19]: > 100 µg/mL; MIC (M[…] ATCC 9341): 0.39 µg/mL (≈ 0.48 µM); MIC (STR[…] 508): 0.1 µg/mL (≈ 0.123 µM); MIC (EN[…] ATCC 8043): 0.39 µg/mL (≈ 0.48 µM); MIC (M[…] ATCC 4698; [25]): 0.78 µg/mL (≈ 0.959 µM); MIC [20]: > 100 µg/mL; MIC [21]: 1.56 µg/mL (≈ 1.92 µM)
CC[C@H]1OC(=O)[C@H](C)C(=O)[C@H](C)[C@@H](O[C@@H]2O[C@H](C)C[C@H](N(C)C)[C@H]2O)[C@](C)(OC)C[C@@H](C)C2=NC3CN(CCOc4ccccc4)CC3N3C(=O)O[C@@]1(C)[C@H]3[C@H]2C (some centres unmarked) [Example 128]	> 100 µg/mL	0.78 µg/mL (≈ 0.976 µM)	> 100 µg/mL	0.39 µg/mL (≈ 0.488 µM)	> 100 µg/mL	0.39 µg/mL (≈ 0.488 µM)	0.39 µg/mL (≈ 0.488 µM)	> 100 µg/mL	100 µg/mL (≈ 125 µM)	> 100 µg/mL	> 100 µg/mL	> 100 µg/mL	> 100 µg/mL	> 100 µg/mL	> 100 µg/mL	> 100 µg/mL	> 100 µg/mL	> 100 µg/mL	100 µg/mL (≈ 125 µM)	1.56 µg/mL (≈ 1.95 µM)	MIC [22]: 0.39 µg/mL (≈ 0.488 µM); MIC [5, 24]: ≤ 5 ng/mL; MIC ([7]; S. aureus A-5278, unit assumed): > 100 µg/mL; MIC ([8]; S. bovis A-5169, unit assumed): ≤ 0.005 µg/mL; MIC [9]: 6.2 µg/mL (≈ 7.76 µM); MIC [23]: 0.39 µg/mL (≈ 0.488 µM); MIC (ESCHERICHIA COLI SS; unit assumed): 1.56 µg/mL (≈ 1.95 µM); MIC [19]: > 100 µg/mL; MIC (M[…] ATCC 9341): 0.05 µg/mL (≈ 0.0626 µM); MIC (EN[…] ATCC 8043): 0.1 µg/mL (≈ 0.125 µM); MIC (M[…] ATCC 4698; [25]): 0.39 µg/mL (≈ 0.488 µM); MIC [20]: > 100 µg/mL; MIC [21]: 0.39 µg/mL (≈ 0.488 µM)
CC[C@H]1OC(=O)[C@H](C)C(=O)[C@H](C)[C@@H](O[C@@H]2O[C@H](C)C[C@H](N(C)C)[C@H]2O)[C@](C)(OC)C[C@@H](C)C2=NC(COCc3ccc(Cl)cc3)C(COCc3ccc(Cl)cc3)N3C(=O)O[C@@]1(C)[C@H]3[C@H]2C (some centres unmarked) [Example 147]	> 100 µg/mL	3.1 µg/mL (≈ 3.27 µM)	50 µg/mL (≈ 52.8 µM)	1.56 µg/mL (≈ 1.65 µM)	> 100 µg/mL	1.56 µg/mL (≈ 1.65 µM)	1.56 µg/mL (≈ 1.65 µM)	> 100 µg/mL	> 100 µg/mL	> 100 µg/mL	> 100 µg/mL	> 100 µg/mL	> 100 µg/mL	3.1 µg/mL (≈ 3.27 µM)	> 100 µg/mL	> 100 µg/mL	> 100 µg/mL	> 100 µg/mL	> 100 µg/mL	1.56 µg/mL (≈ 1.65 µM)	MIC [22]: 1.56 µg/mL (≈ 1.65 µM); MIC ([5]; S. pyogenes EES61, listed as Ex 147, unit assumed): 780 ng/mL (≈ 0.824 µM); MIC ([7]; S. aureus A-5278, listed as Ex 147, unit assumed): 6.2 µg/mL (≈ 6.55 µM); MIC ([8]; S. bovis A-5169, listed as Ex 147, unit assumed): 0.39 µg/mL (≈ 0.412 µM); MIC [23]: 1.56 µg/mL (≈ 1.65 µM); MIC (ESCHERICHIA COLI SS; listed as Ex 147, unit assumed): > 100 µg/mL; MIC [19]: 12.5 µg/mL (≈ 13.2 µM); MIC (M[…] ATCC 9341): 0.39 µg/mL (≈ 0.412 µM); MIC (STR[…] 508): 0.78 µg/mL (≈ 0.824 µM); MIC (EN[…] ATCC 8043): 0.78 µg/mL (≈ 0.824 µM); MIC (M[…] ATCC 4698; M. luteus ATCC 4698, listed as Ex 147, unit assumed): 3.1 µg/mL (≈ 3.27 µM); MIC [20]: > 100 µg/mL; MIC [21]: 1.56 µg/mL (≈ 1.65 µM)

Source: patent publication US6274715A, “Tricyclic erythromycin derivatives” (priority 1997, dated 2001)
